According to patent US20160038459A1, “COMPOSITIONS AND METHODS FOR THE TREATMENT OF NATAL AND PRE-NATAL CONDITIONS WITH ALPHA-TOCOPHEROL” (Northwestern University, priority 2014, published 2016):

Assays:
[1] = Liver tocopherol measurement by HPLC with electrochemical detection; format: in vivo, C57BL/6 mice; details: all groups of the D-α-tocopherol diet experiment (data not shown)
Experimental: Diets or livers were weighed and homogenized in absolute ethanol with 5% ascorbic acid on ice. The internal standard tocol is added to each […] to determine recovery. The homogenate or plasma was extracted with an equal volume of hexane with 0.37 wt/100 wt butylated hydroxytoluene to prevent oxidation and increase recovery of tocopherol. The samples were vortexed and then centrifuged for 10 min at 9,000 g at 4° C. The hexane layer was dried under nitrogen and stored at −20° C. The samples were reconstituted in methanol, and then tocopherols were separated using a reverse-phase C18 HPLC column (Hewlett Packard) and HPLC (Waters) with 99% methanol-1% water as a mobile phase with detection with an electrochemical detector (potential 0.7 V) (Waters).

[2] = test system: OVA-challenged pups from allergic mothers; assay: Maternal γ-tocopherol supplementation of allergic mothers, suboptimal OVA challenge of pups; format: in vivo, C57BL/6 mice; details: for numbers of IRF4+CD11b+CD11c+ dendritic cells in pup lung: OVA-challenged pups from allergic mothers; for inflammatory mediators in OVA-treated pup lungs: protein array and ELISA of minced lung culture supernatants
Experimental: (§1) C57BL/6 female mice were sensitized with OVA/alum and challenged with OVA (150 μg) as in the timeline below. Then, the cages were supplied with basal diet (45 mg γ-tocopherol/kg diet) or γ-tocopherol supplemented diets (250 mg γ-tocopherol/kg diet) and males were introduced for breeding. The pups were administered a suboptimal dose of OVA/alum (i.e., one i.p. with OVA/alum and 3 challenges for 10 min with 3% OVA as previously described (Am J Respir Cell Mol Biol 2011. 44: 285 and Am J PhysiolLung Cell MolPhysiol. 2014, 15; 307:L482-96; both of which are herein incorporated by reference in their entireties).

[3] = Tissue γ-tocopherol after maternal γ-tocopherol-supplemented diet; format: in vivo, C57BL/6 mice
Experimental: as §1

[4] = test system: bone marrow-derived DCs co-cultured with CD4+ T cells; assay: Bone marrow-derived DCs co-cultured 48 hours with purified CD4+ T cells; format: cell-based; details: 2 μM γ-T; 48 hours co-culture (not shown)
Experimental: FIGS. 17A-C show α-T and γ-T have opposing effects in regulation of DC development and function in vitro. FIGS. 17A and B show results from bone marrow from postnatal day 10 neonate (with basal diet) that was cultured with GM-CSF and with 80 μM αT (FIG. 17B) or 2 μM γT (FIG. 17A) for 8 days and analyzed for DC subsets by immunolabeling/flow cytometry. *, p<0.05 compared to DMSO group. **, p<0.05 compared to indicated group. […] Expression by qPCR. There was no effect on cell viability (not shown). n=3. **, p<0.05 compared to all other groups. *, p<0.05 compared to DMSO group.

[5] = 250 mg γ-tocopherol/kg maternal diet
[6] = 250 mg γ-tocopherol/kg maternal diet, listed as γT
[7] = 250 mg γ-tocopherol/kg maternal diet, allergic mothers

In the case of `Cc1c(O)cc2c(c1C)O[C@](C)(CCC[C@H](C)CCC[C@H](C)CCCC(C)C)CC2` [γ-tocopherol], the “liver γ-tocopherol” value [1] was < 0.003 μg γ-tocopherol/g liver tissue, the “number of BAL leukocytes in OVA-challenged pups from allergic mothers” value [2, 5] was “increases” and the “number of pups from supplemented allergic mothers” value [2, 5] was “fewer pups”. For the same molecule, the “pup responses to allergen challenge” value ([2]; 250 mg γ-tocopherol/kg maternal diet during pregnancy/lactation, allergic mothers) was “elevated”, the “numbers of IRF4+CD11b+CD11c+ dendritic cells in pup lung” value [2, 5] was “increases” and the “numbers of IRF4+CD11b+CD11c+ dendritic cells in pup lung” value [2, 6] was “elevated numbers”. For the same molecule, the “numbers of CD11b expressing subsets of CD11c dendritic cells in pup lung” value [2, 7] was “increased numbers”, the “numbers of pup lung eosinophils” value [2, 7] was “increased numbers” and the “number of allergic mothers with pups” value ([2]; 250 mg γ-tocopherol/kg maternal diet, percentage of mated females that had pups) was “reduced”. The “inflammatory mediators in OVA-treated pup lungs” value [2, 5] was “increases”, the “inflammatory mediators in OVA-treated pup lungs” value [2, 6] was “increased” and the “tissue γ-tocopherol in mothers” value [3] was “elevates”. For the same molecule, the “tissue γ-tocopherol in pups” value [3] was “elevates” and the cell viability [4] was “no effect”.
